# Patent publication US7893299B2, “Interleukin-1 and tumor necrosis factor-αmodulators; syntheses of such modulators and methods of using such modulators” (Nereus Pharmaceuticals, Inc., priority 2005, dated 2011)
# Experiments:
# HS766T cells = assay: apoptosis by PI FACS analysis, HS766T; assay type: cell-based, human; details: combination treatment with Salinosporamide A, increased from 4%
# Excerpt: Novel diterpene inhibitors of NFκB derived from acanthoic acid (NPI-1342 (Formula IIB-a1) and NPI-1387; compound 24 under scheme 4 above) show measurable effects in human pancreatic cancer cell lines in vitro. Seven of the nine cell lines were moderately sensitive to apoptosis induced by death receptor ligand Tumor Necrosis Factor (TNF) related apoptosis-inducing ligand (TRAIL). […] Specific silencing of NFkB/p65 expression mimicked these effects. Furthermore, combination treatment of Salinosporamide A and either NPI-1342 or NPI-1387 led to induction of apoptosis as measured by PI FACS analysis. Specifically, levels of DNA fragmentation increased from 4% to 50% in HS766T cells and from 4% to 52% in Panc1 cells. The inhibitory effects of NPI-1342, NPI-1387 on NFκB were evaluated by Electromobility Shift Assays and confirmed by confocal microscopy.
# [1] = system: TNF-α induced nuclear factor-κB (NF-κB) activation; assay: HEK293 NF-κB/Luciferase reporter cell line; assay type: cell-based
# [2] = system: NF-κB DNA binding activity; assay: NF-κB DNA binding activity, EMSA, RPMI 8226; assay type: cell-based; details: LPS
# IKKα = IKKα (Mus musculus, UniProt Q60680); assay type: cell-based; details: LPS-stimulated RAW264.7; 1, 5, 10 and 20 μM
# Method: (§1) Cells were treated with 1, 5, 10 and 20 μM of NPI-1387 for 1 hour and then stimulated with 10 ng/ml LPS for 10 or 30 min. To determine the phosphorylation of IRAK1, whole cell extracts were prepared in RIPA buffer [0.9% NaCl, 50 mM Tris-HCl (pH7.4), 1% Triton X-100, 1 mM EDTA, 0.25% Na-deoxycholic acid, 0.1% SDS, 1 mM Na3VO4, 1 mM NaF and protease inhibitors]. […] Following electro-transfer, the membranes were blocked in Blotto (5%, w/v) non-fat milk in 1×TBST [20 mM Tris, 0.8% (w/v) NaCl, pH 7.6, 0.1% (v/v) Tween 20]. Membranes were then incubated with primary antibodies against IRAK1 (Santa Cruz Biotechnology), total IκBα (Cell Signaling Technology), phospho-IκBα (Cell Signaling Technology) and Tubulin (Lab Vision) in Blotto for 2 hours. The membranes were washed in TBST and (where necessary) incubated with the HRP-conjugated secondary antibody in Blotto for 1 hour before washing extensively with TBST. HRP activity was visualized by utilizing either SuperSignal West Pico or Dura chemiluminescent detection systems (Pierce Biotechnology). […] The protein samples were separated by 10% NuPAGE MES precast gels (Invitrogen) and the extent of GST-IκBα phosphorylation was evaluated by western blotting using the antibody against phospho-IκBα (Cell Signaling Technology).
# IRAK1 = assay type: cell-based; details: LPS-stimulated RAW264.7; 1, 5, 10 and 20 μM
# Method: as §1
# [3] = system: MM cells with IL-6 or IGF-1; assay: protective effects of MM bone marrow microenvironment; assay type: cell-based
# [4] = system: bortezomib-resistant DHL-4 lymphoma cells; assay: viability of bortezomib-resistant DHL-4 lymphoma cells; assay type: cell-based; details: 48 hours; 0, 12, 25 and 50 uM
# Method: Two cell-based assays were treated with NPI-1387 for 48 hours at concentrations of 0, 12, 25 and 50 uM. Both Bcl-2-overexpressing MM.1S cells and bortezomib-resistant DHL-4 lymphoma cells were used and the percentage of viable cells of each was recorded. […] (See FIG. 67).
# IL-8 production = assay: LPS-stimulated IL-8 levels in RPMI 8226 cells (ELISA); assay type: cell-based, human; details: 20 μM to 0.16 μM
# Method: Ninety μl of 2.8×10^5/ml and 0.5 ml of 5×10^5/ml RMPI 8226 cells (#CCL-155C, American Type Culture Collection) were seeded in 96-well and 6-well plate in LGM-3 medium, respectively. Cells were cultured overnight at 37° C., 5% CO2 and 95% humidified air. 8-point serial dilution of TTL3 or formula (IIB-A1) was added to cells for 1 hr at the final concentration ranging from 20 μM to 0.16 μM. DMSO was used as control. After 1 hr, 50 ng/ml of LPS diluted in LGM-3 medium from 1 mg/ml stock solution was added to stimulate the cells for additional 10 hr. Supernatants were collected and IL-8 and IL-10 levels were analyzed by using the human IL-8 and IL-10 cytoset ELISA kits.
# LPS/D-Gal administration = assay: mortality after LPS/D-Gal administration; assay type: in vivo; details: i.p., TTL3 administration 45 minutes prior to LPS
# Sequence of IKKα (Q60680 whole entry): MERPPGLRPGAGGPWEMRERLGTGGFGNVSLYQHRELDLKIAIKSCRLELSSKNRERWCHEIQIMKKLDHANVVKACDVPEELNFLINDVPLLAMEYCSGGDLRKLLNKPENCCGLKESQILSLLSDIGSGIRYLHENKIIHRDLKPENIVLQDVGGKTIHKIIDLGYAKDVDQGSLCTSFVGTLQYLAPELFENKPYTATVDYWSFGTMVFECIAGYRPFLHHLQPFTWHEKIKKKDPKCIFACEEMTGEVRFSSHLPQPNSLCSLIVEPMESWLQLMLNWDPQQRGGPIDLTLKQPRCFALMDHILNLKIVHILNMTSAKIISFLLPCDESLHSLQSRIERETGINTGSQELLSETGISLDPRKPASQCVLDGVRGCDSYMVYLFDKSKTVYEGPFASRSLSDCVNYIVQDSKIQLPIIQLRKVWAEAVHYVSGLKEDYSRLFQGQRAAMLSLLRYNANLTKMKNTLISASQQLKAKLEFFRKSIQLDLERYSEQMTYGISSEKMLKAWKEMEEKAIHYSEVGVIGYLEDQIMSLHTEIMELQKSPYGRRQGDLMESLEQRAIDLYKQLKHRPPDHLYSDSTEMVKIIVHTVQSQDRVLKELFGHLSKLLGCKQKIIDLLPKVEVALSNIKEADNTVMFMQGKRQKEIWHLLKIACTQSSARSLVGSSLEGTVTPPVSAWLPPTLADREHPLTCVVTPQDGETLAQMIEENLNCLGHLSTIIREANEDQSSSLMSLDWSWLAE
structure (smiles),measurement,setting,value
"C=CC(=O)C1(C)CCCC2(C)C3=CCC(C)(C=C)C[C@@H]3CC[C@H]12 (stereo in doubt) [NPI-1387, 1-[(1S,4aS,7R)-1,4a,7-Trimethyl-7-vinyl-1,2,3,4,4a,6,7,8,8a,9,10,10a-dodecahydro-1-phenanthrenyl]-2-propen-1-one]",levels of DNA fragmentation,HS766T cells,50%
same,TNF-α induced NF-κB activation,[1],reduced TNF-α induced nuclear factor-κB (NF-κB) activation
same,NF-κB DNA binding activity,[2],inhibits the DNA binding activity of NF-κB in a dose-dependent manner
same,kinase activity of IKKα,IKKα,reduces kinase activity of IKKα in a dose-dependent manner
same,phosphorylation of IRAK1 (and its downstream target IκBα),IRAK1,inhibits the phosphorylation of IRAK1
same,protective effects of IL-6 or IGF-1,[3],does overcome the protective effects of IL-6 or IGF-1
same,percentage of viable cells,[4],marked decrease in the percentage of viable cells
"C=C[C@@]1(C)CCC=C2[C@H]1CC[C@@H]1[C@](C)(C(=O)NC3CCCCC3)CCC[C@@]21C [Formula (IIB-A1), N-Cyclohexylamide Derivative of TTL]",LPS-induced IL-8 production,IL-8 production,reduces LPS-induced IL-8 and IL-10 production in a dose-dependent manner
same,LPS-induced IL-8 production,IL-8 production; listed as formula (IIB-A1),inhibits the LPS-induced IL-8 and IL-10 production
C=C[C@@]1(C)CCC=C2[C@H]1CC[C@@H]1[C@](C)(C(=O)OC)CCC[C@@]21C [TTL3],Mortality 24 hours,LPS/D-Gal administration,2/10
same,Mortality 48 hours,LPS/D-Gal administration,2/10
